Values quoted from earlier work as cited in US20060280819A1, “Ellagic acid food supplement prepared from pomegranate seed” (priority 2005, published 2006).

What was measured:
[1] = tested on: breast, pancreas, esophageal, skin, colon and prostate cancer cells
[2] = tested on: p53 gene; conditions: clinical tests
[3] = tested on: cancer cells; conditions: lab tests
[4] = tested on: normal healthy cells; conditions: lab tests

For O=c1oc2c(O)c(O)cc3c(=O)oc4c(O)c(O)cc1c4c23 [ellagic acid], the “time to G-arrest (inhibiting and stopping mitosis-cancer cell division)” value [1] is listed as no more than 48 h, the “time to apoptosis (normal cell death)” value [1] is listed as no more than 72 h and the “effect on destruction of the p53 gene by cancer cells” value [2] is listed as “prevents the destruction of the p53 gene”. For the same compound, the “apoptosis (cell death) of cancer cells” value [3] was “causes apoptosis” and the “effect on normal healthy cells” value [4] was “no change”.
